Values of other authors as cited in patent US20110104281A1, “METHOD FOR TREATING PAIN USING A SUBSTITUTED 2-AMINOTETRALIN COMPOUND” (UCB PHARMA GMBH, priority 2006, published 2011).

Columns and labels:
D3 receptor = D3 receptor (Homo sapiens, UniProt P35462); conditions: cited from earlier work
D1 receptor = D1 receptor (Homo sapiens, UniProt P21728); conditions: cited from earlier work
5-HT1A receptor = 5-HT1A receptor (Homo sapiens, UniProt P08908); conditions: cited from earlier work
α2B receptor = α2B receptor (Homo sapiens, UniProt P18089); conditions: cited from earlier work
5-HT7 = 5-HT7 (Homo sapiens, UniProt P34969); conditions: cited from earlier work
α2C = α2C (Homo sapiens, UniProt P18825); conditions: cited from earlier work
fibromyalgia patients = conditions: preliminary clinical studies; cited from earlier work

Chain of α2B receptor (P18089 whole entry): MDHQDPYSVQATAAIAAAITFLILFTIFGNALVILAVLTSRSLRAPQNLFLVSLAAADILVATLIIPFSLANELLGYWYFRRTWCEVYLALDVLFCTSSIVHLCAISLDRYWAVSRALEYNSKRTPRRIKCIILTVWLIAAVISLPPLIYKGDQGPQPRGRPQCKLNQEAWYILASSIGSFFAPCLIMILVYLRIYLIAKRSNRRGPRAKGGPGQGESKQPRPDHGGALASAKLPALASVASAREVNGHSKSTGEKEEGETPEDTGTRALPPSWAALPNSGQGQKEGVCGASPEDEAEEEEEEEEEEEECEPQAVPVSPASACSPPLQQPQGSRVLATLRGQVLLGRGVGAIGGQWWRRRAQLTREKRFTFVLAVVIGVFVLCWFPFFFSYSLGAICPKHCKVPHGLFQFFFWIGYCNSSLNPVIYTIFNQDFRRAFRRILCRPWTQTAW
Chain of α2C (P18825 whole entry): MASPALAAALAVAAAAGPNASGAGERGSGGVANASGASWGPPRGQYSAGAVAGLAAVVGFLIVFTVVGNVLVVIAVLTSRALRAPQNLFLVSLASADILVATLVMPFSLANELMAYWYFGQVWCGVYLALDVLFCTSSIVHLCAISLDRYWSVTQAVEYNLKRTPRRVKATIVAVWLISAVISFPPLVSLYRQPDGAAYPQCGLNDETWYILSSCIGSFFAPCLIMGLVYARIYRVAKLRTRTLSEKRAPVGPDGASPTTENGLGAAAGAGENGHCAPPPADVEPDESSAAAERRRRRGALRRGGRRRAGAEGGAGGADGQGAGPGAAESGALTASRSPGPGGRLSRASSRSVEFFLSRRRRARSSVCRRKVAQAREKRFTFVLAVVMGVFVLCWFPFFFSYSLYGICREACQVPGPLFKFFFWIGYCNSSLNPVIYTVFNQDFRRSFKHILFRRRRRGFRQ
Chain of 5-HT7 (P34969 whole entry, species assumed): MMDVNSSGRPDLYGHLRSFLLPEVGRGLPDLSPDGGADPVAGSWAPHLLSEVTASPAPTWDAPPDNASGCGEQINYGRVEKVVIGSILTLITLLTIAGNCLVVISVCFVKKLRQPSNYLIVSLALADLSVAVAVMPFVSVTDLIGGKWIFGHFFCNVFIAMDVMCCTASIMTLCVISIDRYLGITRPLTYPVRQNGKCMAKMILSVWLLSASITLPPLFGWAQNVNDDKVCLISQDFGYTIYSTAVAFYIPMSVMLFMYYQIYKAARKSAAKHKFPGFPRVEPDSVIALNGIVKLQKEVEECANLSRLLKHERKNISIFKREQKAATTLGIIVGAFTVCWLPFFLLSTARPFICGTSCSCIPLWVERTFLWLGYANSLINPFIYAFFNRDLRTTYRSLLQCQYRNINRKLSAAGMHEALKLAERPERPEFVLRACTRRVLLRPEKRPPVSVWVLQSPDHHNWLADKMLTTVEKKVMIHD
Chain of D3 receptor (P35462 whole entry): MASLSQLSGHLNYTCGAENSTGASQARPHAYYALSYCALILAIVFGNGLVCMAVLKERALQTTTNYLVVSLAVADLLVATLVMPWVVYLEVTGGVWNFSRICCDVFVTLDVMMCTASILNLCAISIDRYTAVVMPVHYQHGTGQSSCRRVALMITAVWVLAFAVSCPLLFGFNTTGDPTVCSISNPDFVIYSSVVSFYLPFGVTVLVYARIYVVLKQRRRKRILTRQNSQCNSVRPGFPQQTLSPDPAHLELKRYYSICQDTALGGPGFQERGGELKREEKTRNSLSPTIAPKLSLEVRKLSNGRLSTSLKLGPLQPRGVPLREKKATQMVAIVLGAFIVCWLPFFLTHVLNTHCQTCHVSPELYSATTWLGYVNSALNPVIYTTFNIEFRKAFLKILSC
Chain of 5-HT1A receptor (P08908 whole entry): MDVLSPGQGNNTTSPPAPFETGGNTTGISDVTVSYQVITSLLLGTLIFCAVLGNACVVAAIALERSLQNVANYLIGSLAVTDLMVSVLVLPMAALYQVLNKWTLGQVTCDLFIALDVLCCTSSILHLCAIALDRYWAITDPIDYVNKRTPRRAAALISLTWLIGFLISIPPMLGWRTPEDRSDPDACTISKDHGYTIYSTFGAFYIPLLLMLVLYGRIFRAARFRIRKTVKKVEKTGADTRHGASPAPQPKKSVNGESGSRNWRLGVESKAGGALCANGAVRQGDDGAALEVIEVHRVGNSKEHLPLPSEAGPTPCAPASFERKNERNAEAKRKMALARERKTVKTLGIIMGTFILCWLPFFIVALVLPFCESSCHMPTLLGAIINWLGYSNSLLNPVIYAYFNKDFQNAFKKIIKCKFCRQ
Chain of D1 receptor (P21728 whole entry): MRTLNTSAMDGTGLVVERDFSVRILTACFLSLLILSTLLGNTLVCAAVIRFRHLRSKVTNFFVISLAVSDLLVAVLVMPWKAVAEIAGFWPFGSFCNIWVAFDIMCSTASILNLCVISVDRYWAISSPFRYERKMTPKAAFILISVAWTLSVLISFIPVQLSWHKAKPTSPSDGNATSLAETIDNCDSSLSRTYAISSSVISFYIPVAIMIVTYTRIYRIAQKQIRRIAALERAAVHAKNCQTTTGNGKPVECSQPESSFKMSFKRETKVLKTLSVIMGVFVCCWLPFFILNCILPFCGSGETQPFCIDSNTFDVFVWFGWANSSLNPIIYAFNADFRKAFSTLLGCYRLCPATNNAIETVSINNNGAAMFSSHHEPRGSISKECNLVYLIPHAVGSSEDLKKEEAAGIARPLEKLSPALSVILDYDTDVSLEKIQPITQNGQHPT

Compound	Affinity for D3 receptor (D3 receptor)	Affinity for D1 receptor (D1 receptor)	Affinity / action at 5-HT1A receptor (5-HT1A receptor)	Affinity / action at α2B receptor (α2B receptor)	Affinity for 5-HT7 (5-HT7)	Affinity for α2C (α2C)	Pain in fibromyalgia patients (fibromyalgia patients)
CCCN(CCC)CCc1cccc2c1CC(=O)N2 [ropinirole]	strongest affinity for D3	only weak or no affinity	only weak or no affinity	only weak or no affinity	only weak or no affinity	only weak or no affinity	shown to reduce pain
CCCN[C@H]1CCc2nc(N)sc2C1 [Pramipexole]	strongest affinity for D3	only weak or no affinity	only weak or no affinity	only weak or no affinity	only weak or no affinity	only weak or no affinity	shown to reduce pain
